Values quoted from earlier work, collected in patent publication US20170215417A1, “ANTIMICROBIAL COMPOSITIONS” (LIVIONEX, Inc., priority 2013, published 2017).
Like-named read-outs stand apart in the source and are kept apart here.

Assays:
[1] = @ 79° F.
[2] = tested on: Trichomichosis axillaris polymicrobial infection; details: for average time for resolution of the disease: then antimicrobial cream or lotion (Kim, Korean J Med Mycol. 2005)

Row | water solubility [1] [% w/v] | Compound | irritation and contact dermatitis with standard treatment ([2]; human, in vivo) | average time for resolution of the disease ([2]; standard treatment: shaving) [weeks] | irritation and contact dermatitis with standard treatment ([2]; standard treatment: shaving, then antimicrobial cream or lotion)
1 | 34 | CS(C)(=O)=O [MSM, methylsulfonylmethane] | – | – | –
2 | – | CC[C@H]1OC(=O)[C@H](C)[C@@H](O[C@H]2C[C@@](C)(OC)[C@@H](O)[C@H](C)O2)[C@H](C)[C@@H](O[C@@H]2O[C@H](C)C[C@H](N(C)C)[C@H]2O)[C@](C)(O)C[C@@H](C)C(=O)[C@H](C)[C@@H](O)[C@]1(C)O [erythromycin] | often results in irritation and contact dermatitis | 3 | –
3 | – | O=C(OOC(=O)c1ccccc1)c1ccccc1 [benzoyl peroxide] | – | 3 | often results in irritation and contact dermatitis
